The values that follow come from ChEMBL document CHEMBL5252541, “Repurposing antipsychotic drugs into antifungal agents: Synergistic combinations of azoles and bromperidol derivatives in the treatment of various fungal infections” (Eur J Med Chem, 2017).

≈ marks a conversion by molar mass, not a printed value.

The MIC is the lowest concentration found to suppress growth.

Assay [1] deals with Candida albicans. Briefly: Synergistic antifungal activity against Candida albicans ATCC 64124 assessed as ketoconazole MIC measured after 48 hrs by checkboard based microplate reader analysis. It is filed as functional.
Assay [2] concerns Candida albicans. As to the kind of experiment: Additive antifungal activity against Candida albicans ATCC 10231 assessed as fractional inhibitory concentration index measured for 72 hrs in presence of ketoconazole. It counts as functional.
The subject of assay [3] is Candida albicans. As to the kind of experiment: Synergistic antifungal activity against Candida albicans ATCC 10231 assessed as ketoconazole MIC measured after 48 hrs by checkboard based microplate reader analysis. It counts as functional.
In assay [4] the test system is Candida albicans. As to the kind of experiment: Antifungal activity against Candida albicans ATCC 10231 measured after 48 hrs by broth microdilution analysis. It is filed as functional. (In broth dilution the organism is exposed to a series of concentrations in liquid medium.)
For assay [5], the system named is Candida albicans. Briefly: Antifungal activity against Candida albicans ATCC 64124 measured after 48 hrs by broth microdilution analysis. It is filed as functional.
The subject of assay [6] is Candida albicans. Briefly: Additive antifungal activity against Candida albicans ATCC 90819 assessed as fractional inhibitory concentration index measured for 72 hrs in presence of voriconazole. It counts as functional.
For assay [7], the system named is Candida albicans. Briefly: Partial synergistic antifungal activity against Candida albicans ATCC 10231 assessed as fractional inhibitory concentration index measured for 72 hrs in presence of posaconazole. It counts as functional.
The test system of assay [8] is Candida albicans. As to the kind of experiment: Synergistic antifungal activity against Candida albicans ATCC 64124 assessed as compound MIC measured after 48 hrs in presence of voriconazole by checkboard based microplate reader analysis. It counts as functional.
Assay [9] has as its system Candida albicans. Briefly: Synergistic antifungal activity against Candida albicans ATCC 64124 assessed as compound MIC measured after 48 hrs in presence of itraconazole by checkboard based microplate reader analysis. It counts as functional.
Assay [10] concerns Candida albicans. As to the kind of experiment: Additive antifungal activity against Candida albicans ATCC MYA-2876 assessed as fractional inhibitory concentration index measured for 72 hrs in presence of voriconazole. It counts as functional.
Assay [11] has as its system Candida albicans. As to the kind of experiment: Additive antifungal activity against Candida albicans MYA-1003 assessed as fractional inhibitory concentration index measured for 72 hrs in presence of posaconazole.
In assay [12] the test system is Aspergillus terreus. As to the kind of experiment: Additive antifungal activity against Aspergillus terreus ATCC MYA-3633 assessed as fractional inhibitory concentration index measured for 72 hrs in presence of voriconazole. It counts as functional.
Assay [13] deals with Candida albicans. As to the kind of experiment: Antifungal activity against Candida albicans ATCC MYA-2876 measured after 48 hrs by broth microdilution analysis. It counts as functional.
Assay [14] concerns Candida albicans. Briefly: Additive antifungal activity against Candida albicans ATCC 10231 assessed as fractional inhibitory concentration index measured for 72 hrs in presence of fluconazole. It is filed as functional.
The subject of assay [15] is Candida albicans. As to the kind of experiment: Synergistic antifungal activity against Candida albicans ATCC 64124 assessed as fractional inhibitory concentration index measured for 72 hrs in presence of posaconazole. It counts as functional.
Assay [16] relates to Candida albicans. As to the kind of experiment: Synergistic antifungal activity against Candida albicans ATCC 10231 assessed as compound MIC measured after 48 hrs in presence of ketoconazole by checkboard based microplate reader analysis. It is filed as functional.
Assay [17] relates to Candida albicans. Briefly: Synergistic antifungal activity against Candida albicans ATCC 64124 assessed as compound MIC measured after 48 hrs in presence of fluconazole by checkboard based microplate reader analysis. It counts as functional.
Assay [18] concerns Candida albicans. Briefly: Additive antifungal activity against Candida albicans ATCC 64124 assessed as fractional inhibitory concentration index measured for 72 hrs in presence of fluconazole. It counts as functional.
Assay [19] deals with Nakaseomyces glabratus. As to the kind of experiment: Additive antifungal activity against Candida glabrata ATCC 2001 assessed as fractional inhibitory concentration index measured for 72 hrs in presence of voriconazole. It counts as functional.
For assay [20], the system named is Candida albicans. As to the kind of experiment: Antifungal activity against Candida albicans ATCC MYA-1237 measured after 48 hrs by broth microdilution analysis. It is filed as functional.
The subject of assay [21] is Candida albicans. Briefly: Additive antifungal activity against Candida albicans ATCC 64124 assessed as fractional inhibitory concentration index measured for 72 hrs in presence of itraconazole. It counts as functional.
Assay [22] relates to Candida albicans. Briefly: Synergistic antifungal activity against Candida albicans ATCC 64124 assessed as compound MIC measured after 48 hrs in presence of posaconazole by checkboard based microplate reader analysis. It counts as functional.
Assay [23] concerns Aspergillus terreus. Briefly: Antifungal activity against Aspergillus terreus ATCC MYA-3633 measured after 48 hrs by broth microdilution analysis. It counts as functional.
For assay [24], the system named is Candida albicans. As to the kind of experiment: Additive antifungal activity against Candida albicans ATCC MYA-2876 assessed as fractional inhibitory concentration index measured for 72 hrs in presence of posaconazole. It is filed as functional.
Assay [25] has as its system Candida albicans. As to the kind of experiment: Partial synergistic antifungal activity against Candida albicans ATCC 10231 assessed as fractional inhibitory concentration index measured for 72 hrs in presence of voriconazole. It is filed as functional.
Assay [26] relates to Candida albicans. Briefly: Additive antifungal activity against Candida albicans ATCC MYA-2310 assessed as fractional inhibitory concentration index measured for 72 hrs in presence of posaconazole. It is filed as functional.
Assay [27] has as its system Candida albicans. As to the kind of experiment: Additive antifungal activity against Candida albicans ATCC MYA-2310 assessed as fractional inhibitory concentration index measured for 72 hrs in presence of voriconazole. It counts as functional.
For assay [28], the system named is Candida albicans. As to the kind of experiment: Additive antifungal activity against Candida albicans ATCC 10231 assessed as fractional inhibitory concentration index measured for 72 hrs in presence of itraconazole. It is filed as functional.
For assay [29], the system named is Candida albicans. As to the kind of experiment: Synergistic antifungal activity against Candida albicans ATCC 64124 assessed as compound MIC measured after 48 hrs in presence of ketoconazole by checkboard based microplate reader analysis. It counts as functional.
The test system of assay [30] is Candida albicans. Briefly: Synergistic antifungal activity against Candida albicans ATCC 10231 assessed as compound MIC measured after 48 hrs in presence of voriconazole by checkboard based microplate reader analysis. It counts as functional.
Assay [31] relates to Nakaseomyces glabratus. Briefly: Additive antifungal activity against Candida glabrata ATCC 2001 assessed as fractional inhibitory concentration index measured for 72 hrs in presence of posaconazole. It counts as functional.
Assay [32] deals with Candida albicans. As to the kind of experiment: Partial synergistic antifungal activity against Candida albicans ATCC 64124 assessed as fractional inhibitory concentration index measured for 72 hrs in presence of voriconazole. It counts as functional.
Assay [33] has as its system Candida albicans. As to the kind of experiment: Additive antifungal activity against Candida albicans ATCC 64124 assessed as fractional inhibitory concentration index measured for 72 hrs in presence of ketoconazole. It is filed as functional.
In assay [34] the test system is Candida albicans. Briefly: Additive antifungal activity against Candida albicans MYA-1003 assessed as fractional inhibitory concentration index measured for 72 hrs in presence of voriconazole.
Assay [35] relates to Candida albicans. As to the kind of experiment: Synergistic antifungal activity against Candida albicans ATCC 10231 assessed as compound MIC measured after 48 hrs in presence of posaconazole by checkboard based microplate reader analysis. It is filed as functional.
Assay [36] relates to Aspergillus terreus. Briefly: Additive antifungal activity against Aspergillus terreus ATCC MYA-3633 assessed as fractional inhibitory concentration index measured for 72 hrs in presence of posaconazole. It is filed as functional.
For assay [37], the system named is Candida albicans. As to the kind of experiment: Antifungal activity against Candida albicans ATCC MYA-1003 measured after 48 hrs by broth microdilution analysis. It is filed as functional.
The test system of assay [38] is Candida albicans. Briefly: Antifungal activity against Candida albicans ATCC MYA-2310 measured after 48 hrs by broth microdilution analysis. It is filed as functional.
Assay [39] has as its system Candida albicans. Briefly: Synergistic antifungal activity against Candida albicans ATCC 10231 assessed as compound MIC measured after 48 hrs in presence of fluconazole by checkboard based microplate reader analysis. It is filed as functional.
Assay [40] deals with Candida albicans. As to the kind of experiment: Antifungal activity against Candida albicans ATCC 90819 measured after 48 hrs by broth microdilution analysis. It counts as functional.
For assay [41], the system named is Nakaseomyces glabratus. Briefly: Antifungal activity against Candida glabrata ATCC 2001 measured after 48 hrs by broth microdilution analysis. It counts as functional.
Assay [42] concerns Candida albicans. Briefly: Synergistic antifungal activity against Candida albicans ATCC 10231 assessed as compound MIC measured after 48 hrs in presence of itraconazole by checkboard based microplate reader analysis. It is filed as functional.
Assay [43] has as its system Candida albicans. As to the kind of experiment: Additive antifungal activity against Candida albicans ATCC 90819 assessed as fractional inhibitory concentration index measured for 72 hrs in presence of posaconazole. It counts as functional.

Turning to `CC(=O)N1CCN(c2ccc(OCC3COC(Cn4ccnc4)(c4ccc(Cl)cc4Cl)O3)cc2)CC1` (stereo not given) [KETOCONAZOLE], the minimal inhibitory concentration (MIC) came out at 4 µg/mL with Candida albicans [1], 0.5 µg/mL with Candida albicans [3], 1 µg/mL (≈ 1.88 µM) in the assay on Candida albicans [4] and 8 µg/mL (≈ 15.1 µM) with Candida albicans [5]. In the assay on Candida albicans [2], the “fractional inhibitory concentration index (FICI)” value is on record as 2.
As for `O=C(CCCN1CCC(O)(c2ccc(Br)cc2)CC1)c1ccccc1`, the “fractional inhibitory concentration index (FICI)” value in the assay on Candida albicans [6] is 1; with Candida albicans [7], 0.75; with Candida albicans [10], 2; with Candida albicans [11], 1.03; with Aspergillus terreus [12], 2; in the assay with Candida albicans [14], 2. Besides, the “fractional inhibitory concentration index (FICI)” value in the assay with Candida albicans [15] was 0.19; with Candida albicans [18], 2; in the assay with Nakaseomyces glabratus [19], 1.01; in the assay on Candida albicans [21], 2; in the assay on Candida albicans [24], 2; in the assay with Candida albicans [25], 0.63. Further, the “fractional inhibitory concentration index (FICI)” value in the assay with Candida albicans [26] is given as 1.01; in the assay on Candida albicans [27] it was 2; in the assay with Candida albicans [28], 1.5; in the assay with Nakaseomyces glabratus [31], 0.56; in the assay on Candida albicans [32], 0.75; in the assay with Candida albicans [33], 1. Also, the entries for the “fractional inhibitory concentration index (FICI)” value in the assay on Candida albicans [34], in the assay with Aspergillus terreus [36] and in the assay on Candida albicans [43] were 1.06, 1.25 and 1, respectively. For the same compound, the MIC in the assay on Candida albicans [8] is 32 µg/mL; in the assay with Candida albicans [9] it was over 64 µg/mL; in the assay on Candida albicans [13] it was over 64 µg/mL; in the assay with Candida albicans [16], over 64 µg/mL; in the assay on Candida albicans [17], over 64 µg/mL; against Candida albicans [20], over 64 µg/mL. Besides, the MIC in the assay on Candida albicans [22] was 8 µg/mL; against Aspergillus terreus [23], over 64 µg/mL; in the assay with Candida albicans [29], 32 µg/mL; with Candida albicans [30], 8 µg/mL; against Candida albicans [4] it was over 64 µg/mL; in the assay with Candida albicans [35] it was 16 µg/mL. For the same compound, the MIC against Candida albicans [5] is over 64 µg/mL; against Candida albicans [37], over 64 µg/mL; in the assay with Candida albicans [38], over 64 µg/mL; with Candida albicans [39], 64 µg/mL; with Candida albicans [40] it was over 64 µg/mL; in the assay with Nakaseomyces glabratus [41], over 64 µg/mL. The minimum inhibitory concentration (MIC) in the assay with Candida albicans [42] worked out at 64 µg/mL.
